Test results reported in US20140100217A1, “[…] OF PROLINE-RICH PEPTIDES AND THEIR USE” (priority 2012, published 2014).
No end group written: not given here.

Columns and labels:
VASP-EVH1 domain [1] = biological target: T1, VASP-EVH1 domain (Homo sapiens, UniProt P50552); test: Binding affinity of ligand peptides by kinetic Biacore method
T1 construct: ligand peptides with the VASP-EVH1 domain in solution
Description: With the aid of the synthetic compound 85, ligand peptides with partially or completely replaced proline sequences were synthesized by way of example and investigated for their interaction with the EVH1 domain (pp=component 85). […] The binding affinities were determined by means of NMR titration, the kinetic Biacore method or by means of fluorescence titration.

VASP-EVH1 domain [2] = biological target: T1, VASP-EVH1 domain; type: binding

T1 sequence (P50552 2-113): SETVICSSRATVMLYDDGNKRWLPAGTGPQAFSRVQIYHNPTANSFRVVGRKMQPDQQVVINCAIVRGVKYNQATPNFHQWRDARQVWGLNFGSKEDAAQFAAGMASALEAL

Compound | Kd (VASP-EVH1 domain [1]) [µM] | binding affinity (KD) (VASP-EVH1 domain [2])
CC(C)C[C@H](NC(=O)[C@H](CCC(=O)O)NC(=O)[C@H](CC(=O)O)NC(=O)[C@H](CCC(=O)O)NC(=O)[C@@H](NC(=O)[C@@H]1CCCN1C(=O)[C@@H]1CC[C@@H]2C=C[C@@H](C)[C@H](NC(=O)[C@@H]3CCCN3C(=O)[C@H](Cc3c[nH]c4ccccc34)NC(=O)[C@H](CCC(=O)O)NC(=O)[C@H](Cc3ccccc3)NC(=O)[C@@H](N)CO)C(=O)N21)[C@@H](C)O)C(=O)O [SFEWPppPTEDEL (II)] | 3.7 to 12.5 | –
FPPPPT [FPPPPT] | – | measurable affinity for the VASP-EVH1 domain could no longer be determined
